Key:
nutsedge, yellow = test: Test C preemergence; assay type: in vivo, Cyperus esculentus; conditions: for Plant response rating (scale of 0 to 100 where 0 is no effect and 100 is complete control): Nutsedge, Yellow, preemergence; for Nutsedge, Yellow plant response rating (0 to 100): Preemergence, visual rating after 13 to 15 d
Text: (§1) Seeds of plant species selected from blackgrass (Alopecurus myosuroides), ryegrass, Italian (Italian ryegrass, Lolium multiflorum), wheat (winter wheat, Triticum aestivum), galium (catchweed bedstraw, Galium aparine), corn (Zea mays), crabgrass, large (large crabgrass, Digitaria sanguinalis), foxtail, giant, (giant foxtail, Setaria faberii), johnsongrass (Sorghum halepense), lambsquarters (Chenopodium album), morningglory (Ipomoea coccinea), nutsedge, yellow (yellow nutsedge, Cyperus esculentus), pigweed (Amaranthus retroflexus), ragweed (common ragweed, Ambrosia elatior), soybean (Glycine max), barnyardgrass (Echinochloa crus-galli), oilseed rape (Brassica napus), waterhemp (common waterhemp, Amaranthus rudis), and velvetleaf (Abutilon theophrasti) were planted into a blend of loam soil and sand and treated preemergence with test chemicals formulated in a non-phytotoxic solvent mixture which included a surfactant. At the same time, plants selected from these crop and weed species and also chickweed (common chickweed, Stellaria media), oat, wild (wild oat, Avena fatua), and kochia (Kochia scoparia), were planted in pots containing Sunshine Redi-Earth® planting medium comprising spaghnum peat moss, vermiculite, starter nutrients and dolomitic limestone and treated with postemergence applications of test chemicals formulated in the same manner. Plants ranged in height from 2 to 18 cm (1- to 4-leaf stage) for postemergence treatments. […] A dash (-) response means no test result.

pigweed = test: Test C preemergence; assay type: in vivo, Amaranthus retroflexus; conditions: for Plant response rating (scale of 0 to 100 where 0 is no effect and 100 is complete control): Pigweed, preemergence; for Pigweed plant response rating (0 to 100): Preemergence, visual rating after 13 to 15 d
Text: as §1

waterhemp = test: Test C preemergence; assay type: in vivo, Amaranthus rudis; conditions: for Waterhemp plant response rating (0 to 100): Preemergence, visual rating after 13 to 15 d
Text: as §1

galium = test: Test A postemergence; assay type: in vivo, Galium aparine; conditions: 0 to 100 scale (0 no effect, 100 complete control), approx. 10 d
Text: Seeds of plant species selected from barnyardgrass (Echinochloa crus-galli), crabgrass, large (large crabgrass, Digitaria sanguinalis), kochia (Kochia scoparia), ragweed (common ragweed, Ambrosia elatior), foxtail, giant (giant foxtail, Setaria faberii), morningglory (Ipomoea spp.), pigweed (Amaranthus retroflexus), velvetleaf (Abutilon theophrasti), ryegrass, Italian (Italian ryegrass, Lolium multiflorum), wheat (Triticum aestivum), and corn (Zea mays) were planted into a blend of loam soil and sand and treated preemergence with a directed soil spray using test chemicals formulated in a non-phytotoxic solvent mixture which included a surfactant.
At the same time, plants selected from these crop and weed species and also blackgrass (Alopecurus myosuroides), and galium (catchweed bedstraw, Galium aparine), were planted in pots containing the same blend of loam soil and sand and treated with postemergence applications of test chemicals formulated in the same manner. Plants ranged in height from 2 to 10 cm and were in the one- to two-leaf stage for the postemergence treatment. Treated plants and untreated controls were maintained in a greenhouse for approximately 10 d, after which time all treated plants were compared to untreated controls and visually evaluated for injury. Plant response ratings, summarized in Table A, are based on a 0 to 100 scale where 0 is no effect and 100 is complete control. A dash (-) response means no test result.

Row | SMILES | Plant response rating (scale of 0 to 100 where 0 is no effect and 100 is complete control) (nutsedge, yellow; 125 g ai/ha) | Plant response rating (scale of 0 to 100 where 0 is no effect and 100 is complete control) (nutsedge, yellow; 250 g ai/ha) | Nutsedge, Yellow plant response rating (0 to 100) (nutsedge, yellow; 31 g ai/ha) | Nutsedge, Yellow plant response rating (0 to 100) (nutsedge, yellow; 62 g ai/ha) | Plant response rating (scale of 0 to 100 where 0 is no effect and 100 is complete control) (pigweed; 125 g ai/ha) | Plant response rating (scale of 0 to 100 where 0 is no effect and 100 is complete control) (pigweed; 250 g ai/ha) | Pigweed plant response rating (0 to 100) (pigweed; 31 g ai/ha) | Pigweed plant response rating (0 to 100) (pigweed; 62 g ai/ha) | Waterhemp plant response rating (0 to 100) (waterhemp; 31 g ai/ha) | Waterhemp plant response rating (0 to 100) (waterhemp; 62 g ai/ha) | Plant response rating (scale of 0 to 100 where 0 is no effect and 100 is complete control) (waterhemp; Waterhemp, preemergence, 250 g ai/ha) | Plant response rating, Galium (galium; 125 g ai/ha) | Plant response rating, Galium (galium; 500 g ai/ha)
1 | CCCc1nc(-c2ccc(F)cc2)nn1Cc1ccnc(C(F)(F)F)c1 [Compound 6, 4-[[3-(4-fluorophenyl)-5-propyl-1H-1,2,4-triazol-1-yl]methyl]-2-(trifluoromethyl)pyridine] | 35 | 50 | 25 | 30 | 100 | 100 | 100 | 100 |  |  |  |  | 
2 | COc1nc(-c2ccccc2)nn1Cc1ccnc(C(F)(F)F)c1 [Compound 32] | 5 | 20 | 0 | 0 | 100 | 100 | 100 | 100 | 90 | 100 | 100 | 60 | 90

Reference: patent US10681909B2, “Herbicidal triazoles” (FMC Corporation, priority 2014, dated 2020)
